Results as given in patent US7829304B2, “Compounds and related methods for mutant p53 reactivation” (Northwestern University, priority 2003, dated 2010).
Entries after “also recorded” stand apart in the source; their conditions may differ.

Key:
[1] = tested on: Saos2-CMV cells (p53-null, vector-only control); test: Cellular growth studies on p53-null Saos2 control cells; format: cell-based, human
Procedure: (§1) Cellular growth studies were performed on Saos-2 cells, derived from a human osteosarcoma cancer cell line, according to the method described in Example 44. The cells had either no p53 (null) or mutant (mt) p53 at residues 175 and/or 281 (R175H and […], respectively). Selective arrest of mutant cells indicates good anticancer activity.
Cellular growth studies were performed on Saos2 cells. Human osteosarcoma Saos2 cells are devoid of endogenous p53 due to biallelic deletion of the p53 gene. Previously, a series of Saos2 cell lines were engineered to express several human p53 mutants that are commonly found in human cancers. The derivative Saos2 cell lines used in the present study included the following: 1) Saos2-CMV, which is the vector-only control cell line that is negative for p53 protein. 2) Saos2-175, which expresses the human mutant p53-R175H protein. […]
The cells were grown at 37° C. in Dulbecco's modified Eagle's medium (Cambrex, East Rutherford, N.J.) supplemented with 10% fetal bovine serum (Hyclone, Logan, Utah) under 5% CO2. […] The cells were microscopically analyzed during the course of treatment and the overall effectiveness of the drug treatment on cell growth and survival was assessed on day 7 by staining the cells with Giemsa Stain GS500 (SIGMA, St. Louis, Mo.). […]

[2] = tested on: Saos2 cell lines expressing mutant p53 (Saos2-175, Saos2-281); test: Cellular growth studies on Saos-2 cells expressing mutant p53; format: cell-based, human; conditions: for selective growth arrest/killing of cells expressing mutant p53 (in words): Saos-2 cells with mutant p53 versus p53-null cells
Procedure: as §1
Cellular growth studies were performed on Saos2 cells. Human osteosarcoma Saos2 cells are devoid of endogenous p53 due to biallelic deletion of the p53 gene. Previously, a series of Saos2 cell lines were engineered to express several human p53 mutants that are commonly found in human cancers. The derivative Saos2 cell lines used in the present study included the following: 1) Saos2-CMV, which is the vector-only control cell line that is negative for p53 protein. 2) Saos2-175, which expresses the human mutant p53-R175H protein. The 175H substitution disrupts the structure of the protein resulting in the loss of DNA binding and tumor suppressor function. This mutation is found in ˜6% of all cancers of diverse tumor types. 3) Saos2-273, which expressed the human mutant p53-R273H protein. The 273H substitution eliminates a DNA contact point resulting in the loss of DNA binding and tumor suppressor function. This mutation represents the second most common hot spot mutation and is found in nearly 8% of all cancers. 4) Saos2-281, which expresses the human mutant p53-D281G protein. This mutation disrupts a stabilizing salt bridge resulting in the loss of DNA binding and tumor suppressor function.
The cells were grown at 37° C. in Dulbecco's modified Eagle's medium (Cambrex, East Rutherford, N.J.) supplemented with 10% fetal bovine serum (Hyclone, Logan, Utah) under 5% CO2. The cells were plated at 1×10^6 per 10 cm tissue culture plates and treated with escalating doses of the indicated compounds (Table 1) for varying lengths of time. Routine concentrations of the synthesized compounds ranged from 1-75 μM. After 72-96 hours, the cells were refed with fresh medium containing the appropriate concentration of the compound. In addition, parallel cultures were prepared and maintained under identical conditions without drug treatment as negative controls. The cells were microscopically analyzed during the course of treatment and the overall effectiveness of the drug treatment on cell growth and survival was assessed on day 7 by staining the cells with Giemsa Stain GS500 (SIGMA, St. Louis, Mo.). Prima-1 was included in all experiments for comparison purposes. […] The few Saos2 mutant p53 cells remaining after treatment with compound 7 were quite large and flat, reminiscent of a differentiated cell.

CC(=O)OCC(N)C(=O)c1ccccc1.Cl (racemic) [Compound 7, 3-Acetoxy-1-oxo-1-phenylpropan-2-aminium chloride]
effect on growth of CMV-only cells which lack p53 protein ([1]; Saos2-CMV, assessed on day 7 by Giemsa stain): no effect | selective growth arrest/killing of cells expressing mutant p53 (in words) [2]: activity at lower concentrations, as compared to PRIMA-1; also recorded: efficiently and selectively inhibited the growth of the Saos2 cell lines expressing mutant p53; also recorded: particularly effective at selectively killing cells expressing R175H and R281G p53 mutants at lower concentrations than PRIMA-1

CC(=O)OCC(N)(COC(C)=O)C(=O)c1ccccc1.Cl [Compound 4, 3-Acetoxy-2-(acetoxymethyl)-1-oxo-1-phenylpropan-2-aminium chloride]
minimal effective concentration ([2]; Homo sapiens, 168 h, Mutant: 281, Saos-2 cells, concentration at which active, doses 1-75 μM, cell growth and survival assessed on day 7 by Giemsa stain): 10 µM | selective growth arrest/killing of cells expressing mutant p53 (in words) [2]: activity at lower concentrations, as compared to PRIMA-1; also recorded: showed selectivity for R281G mutants

CNC(COC(C)=O)C(=O)c1ccccc1.Cl (stereo not shown) [Compound 16, 2-(Methylamino)-3-oxo-3-phenylpropyl acetate hydrochloride]
selective growth arrest/killing of cells expressing mutant p53 (in words) ([2]; acetate hydrochloride): the desired activity is lost; also recorded: eliminates the desired activity

COC(=O)C(N)COC(C)=O.Cl (stereo not shown) [Compound 14, 3-Acetoxy-1-methoxy-1-oxopropan-2-aminium chloride]
selective growth arrest/killing of cells expressing mutant p53 (in words) [2]: the desired activity is lost

CC(=O)OCC(N)C(=O)N1CCOCC1.Cl (stereo not shown) [Compound 15, 3-Acetoxy-1-morpholino-1-oxopropan-2-aminium chloride]
selective growth arrest/killing of cells expressing mutant p53 (in words) [2]: the desired activity is lost

O=C1C2CCN(CC2)C1(CO)CO [PRIMA-1, reference compound]
toxic to p53-null cells at concentration ([1]; p53-null Saos-2 cells): 75 µM

CC(=O)OCC(C)(N)C(=O)c1ccccc1.Cl (stereo not shown) [Compound 17, 2-Amino-2-methyl-3-oxo-3-phenylpropyl acetate hydrochloride]
selective growth arrest/killing of cells expressing mutant p53 (in words) [2]: eliminates the desired activity

CC(=O)OC[C@@H](N)C(=O)c1ccccc1.Cl [Compound 8, (R)-3-Acetoxy-1-oxo-1-phenylpropan-2-aminium chloride]
selective growth arrest/killing of cells expressing mutant p53 (in words) [2]: improved activity over (±)-7
